What is called MIC is the smallest concentration in the dilution series that meets the test's criterion for growth inhibition.

In brackets after ≈: the same amount, converted by molar mass.

For one assay, the system named is Mycobacterium tuberculosis. The assay is described as follows: Antimycobacterial activity against Mycobacterium tuberculosis H37Rv assessed as inhibition of bacterial growth incubated for 7 days by MABA assay. The class given is functional. The settings on record: 168 h, time 7 day. (Resazurin is reduced to fluorescent resorufin, in cell work by metabolically active cells.)
As for `CN1CCN(c2ccc(/C=C(\C#N)c3nc4ccccc4[nH]3)cc2)CC1`, the MIC is over 25 µg/mL.

In the case of `COc1cccc(N2CCN(c3ccc(/C=C(\C#N)c4nc5ccccc5[nH]4)cc3)CC2)c1`, the MIC is over 25 µg/mL. As to `N#C/C(=C\c1ccc(N2CCN(c3ccc(Cl)cc3)CC2)cc1)c1nc2ccccc2[nH]1`, the MIC was over 25 µg/mL. Consider `N#C/C(=C\c1ccc(N2CCN(Cc3ccccc3)CC2)cc1)c1nc2ccccc2[nH]1`, for which the MIC is over 25 µg/mL. Regarding `N#CC(Cc1ccc(N2CCN(c3ccccc3)CC2)cc1)c1nc2ccccc2[nH]1` (stereo not given), the MIC is over 25 µg/mL.

For the molecule `N#C/C(=C\c1ccc(N2CCN(c3ccc(Br)cc3)CC2)cc1)c1nc2ccccc2[nH]1`, the MIC was over 25 µg/mL. As to `N#C/C(=C\c1ccc(N2CCN(c3ccc(F)cc3)CC2)cc1)c1nc2ccccc2[nH]1`, the MIC is over 25 µg/mL. With `N#C/C(=C\c1ccc(N2CCN(C3CCCCC3)CC2)cc1)c1nc2ccccc2[nH]1`, the MIC is over 25 µg/mL. On to `COc1ccc(N2CCN(c3ccc(CC(C#N)c4nc5ccccc5[nH]4)cc3)CC2)cc1` (stereo not given), for which the MIC is over 25 µg/mL. For `N#C/C(=C\c1ccc(N2CCN(c3cccc(Cl)c3)CC2)cc1)c1nc2ccccc2[nH]1`, the MIC was over 25 µg/mL.

`Cc1ccc(N2CCN(c3ccc(/C=C(\C#N)c4nc5ccccc5[nH]4)cc3)CC2)cc1`: the MIC came out at 0.78 µg/mL (≈ 1.86 µM). On to `Cc1ccc(N2CCN(c3ccc(CC(C#N)c4nc5ccccc5[nH]4)cc3)CC2)cc1` (stereo not given), for which the MIC is over 25 µg/mL. Consider `N#C/C(=C\c1ccc(N2CCN(Cc3ccc(F)cc3)CC2)cc1)c1nc2ccccc2[nH]1`, for which the MIC amounted to 25 µg/mL (≈ 57.1 µM). Turning to `N#C/C(=C\c1ccc(N2CCN(c3ccccc3)CC2)cc1)c1nc2ccccc2[nH]1`, the MIC turned out to be 6.25 µg/mL (≈ 15.4 µM). Take `CC(=O)N1CCN(c2ccc(/C=C(\C#N)c3nc4ccccc4[nH]3)cc2)CC1`: the MIC is 12.5 µg/mL (≈ 33.7 µM). Take `COc1ccc(N2CCN(c3ccc(/C=C(\C#N)c4nc5ccccc5[nH]4)cc3)CC2)cc1`: the MIC is 6.25 µg/mL (≈ 14.4 µM). For `CC[C@@H](CO)NCCN[C@@H](CC)CO` [ETHAMBUTOL], the MIC came out at 1.56 µg/mL (≈ 7.64 µM).

As for `NNC(=O)c1ccncc1` [ISONIAZID], the MIC was 0.05 µg/mL (≈ 0.365 µM).

As for `CO[C@H]1/C=C/O[C@@]2(C)Oc3c(C)c(O)c4c(O)c(c(/C=N/N5CCN(C)CC5)c(O)c4c3C2=O)NC(=O)/C(C)=C\C=C\[C@H](C)[C@H](O)[C@@H](C)[C@@H](O)[C@@H](C)[C@H](OC(C)=O)[C@@H]1C` [RIFAMPIN], the MIC is 0.1 µg/mL (≈ 0.122 µM).

The test system of another assay is Mycobacterium tuberculosis. The assay is described as follows: Antimycobacterial activity against Mycobacterium tuberculosis H37Rv assessed as inhibition of bacterial growth by MABA assay.
Conditions: not given
The assay is classed as functional.
For the molecule `N#C/C(=C\c1ccccc1)n1nnc2ccccc21`, the MIC came to 6.25 µg/mL (≈ 25.4 µM).

For another assay, the system named is Mycobacterium tuberculosis. The experiment in a line: Antimycobacterial activity against dormant form of Mycobacterium tuberculosis H37Rv assessed as log fold reduction in bacterial count at 10 ug/ml under nutrient starvation condition after 7 days by MPN assay. The class given is functional. Conditions: dose 10 µg/ml; time 7 day.
Consider `Cc1ccc(N2CCN(c3ccc(/C=C(\C#N)c4nc5ccccc5[nH]4)cc3)CC2)cc1`, for which the FC was found to be 2.8.

As to `O=C(O)c1cn(C2CC2)c2cc(N3CCNCC3)c(F)cc2c1=O` [CIPROFLOXACIN], the FC is 1.5. In the case of `NNC(=O)c1ccncc1` [ISONIAZID], the FC turned out to be 1.5. The same measure, in the same setting: the result for `COc1c(N2C[C@@H]3CCCN[C@@H]3C2)c(F)cc2c(=O)c(C(=O)O)cn(C3CC3)c12` [MOXIFLOXACIN] reads 1.5; that for `CO[C@H]1/C=C/O[C@@]2(C)Oc3c(C)c(O)c4c(O)c(c(/C=N/N5CCN(C)CC5)c(O)c4c3C2=O)NC(=O)/C(C)=C\C=C\[C@H](C)[C@H](O)[C@@H](C)[C@@H](O)[C@@H](C)[C@H](OC(C)=O)[C@@H]1C` [RIFAMPIN], 1.5.

Values taken from ChEMBL document CHEMBL4680141, “Novel benzimidazole-acrylonitrile hybrids and their derivatives: Design, synthesis and antimycobacterial activity” (2020).
